{
  "source": "patent US8937077B2",
  "about": "“Bicyclic diamines as janus kinase inhibitors” (Merck Sharp & Dohme Corp., priority 2010, dated 2015)",
  "target": "T1, Jak1 (Homo sapiens, UniProt P23458)",
  "T1 construct": "using a recombinant purified GST-tagged catalytic domain for each enzyme; GST; purchased Invitrogen M4290",
  "T1 sequence (P23458 875-1153 limits assumed)": "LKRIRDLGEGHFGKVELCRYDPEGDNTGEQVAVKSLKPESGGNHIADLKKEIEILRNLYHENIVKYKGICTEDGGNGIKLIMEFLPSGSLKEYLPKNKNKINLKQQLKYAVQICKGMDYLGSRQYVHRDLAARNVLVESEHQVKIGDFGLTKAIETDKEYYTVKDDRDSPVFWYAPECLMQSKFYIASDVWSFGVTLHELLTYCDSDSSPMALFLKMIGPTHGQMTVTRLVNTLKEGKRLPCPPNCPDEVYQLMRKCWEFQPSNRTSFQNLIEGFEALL",
  "test": "Jak Biochemical HTRF Assay (Jak1)",
  "conditions": "recombinant GST-tagged catalytic domain",
  "text": "Compounds of formula I can be prepared according to the general procedures described in the Schemes and Examples herein, using appropriate materials. Representative compounds of the present invention are exemplified herein below. The compounds exemplified are not, however, to be construed as limiting the scope of the invention in any manner. The examples further illustrate details for the preparation of the compounds of the present invention. Those skilled in the art will readily understand that known variations of protecting groups, of reagents, as well as of the conditions and processes of the following preparative procedures, can be used to prepare these compounds. It is also understood that whenever a chemical reagent is not commercially available, such a chemical reagent can be readily prepared by those skilled in the art by either following or adapting known methods described in the literature or described herein. Chiral analogs were prepared via incorporation of chiral reagents or obtained after chiral chromatography separation of a racemically generated analog. All temperatures are degrees Celsius unless otherwise noted. Mass spectra (MS) were measured either by electrospray ion-mass spectroscopy (ESMS) or by atmospheric pressure chemical ionization mass spectroscopy (APCI). Jak1 data were obtained using the in vitro assay described below.\nJak Biochemical HTRF Assay Protocol\nThe ability of compounds to inhibit the activity of Jak1, Jak2, Jak3, and Tyk2 was measured using a recombinant purified GST-tagged catalytic domain for each enzyme (Invitrogen Jak1 #M4290, […]) in an HTRF format biochemical assay. The reactions employed a common peptide substrate, LCB-EQEDEPEGDYFEWLW-NH2 (in-house). The basic assay protocol is as follows: First, […] of diluted compounds in DMSO were dispensed into the wells of a dry 384-well Black plate (Greiner #781076) using a Labcyte Echo 555 acoustic dispenser. Subsequent reagent additions employed an Agilent Bravo. Next, 18 μL, of 1.11X enzyme and 1.11X substrate in 1X assay buffer (Invitrogen kinase buffer #PV3189, 2 mM DTT, 0.05% BSA) were added to the wells and shaken and then preincubated for 30 minutes at room temperature to allow compound binding to equilibrate. After equilibration, 2 μL of 10X ATP in 1X assay buffer was added to initiate the kinase reaction and the plates were shaken and then incubated at room temperature for 120 minutes. At the end of the incubation, 20 μL of 2X stop buffer (streptavidin-Dylight (Thermo #21845), Eu-tagged pY20 antibody (Perkin Elmer #AD0067), EDTA, HEPES, and Triton) was added to quench the reaction. Plates were shaken and centrifuged and then incubated 60 minutes at room temperature and then read on a Perkin Elmer Envision (λex=337 nm, λem=665 and 615 nm, TRF delay time=20 μs). HTRF signal=10,000*665 nm reading/615 nm reading. After normalization to untreated controls, the percent inhibition of the HTRF signal at each compound concentration was calculated. The plot of percent inhibition versus the log of compound concentration was fit with a 4-parameter dose response equation to calculate IC50 values.",
  "key": {"[1]": {"conditions": "IC50 class, read-out: Jak1 activity"}},
  "note": "Where two headings read alike, the source gives them in different places.",
  "data": [
    {"smiles": "O=C(OCCCc1ccccc1)N1CCC[C@@H]2[C@H]1CCN2c1ncnc2[nH]ccc12", "note": "[Example 3-47, 3-phenylpropyl (3aR,7aR)-1-(7H-pyrrolo[2,3-d]pyrimidin-4-yl)octahydro-4H-pyrrolo[3,2-b]pyridine-4-carboxylate]", "values": [
      {"measurement": "IC50", "setting": "[1]", "value": "1 to 10", "unit": "nM"}
    ]},
    {"smiles": "Cn1ncc2cc(CC(=O)N3CCC[C@@H]4[C@H]3CCN4c3ncnc4[nH]ccc34)ccc21", "note": "[Example 29-59, 4-{(3aR,7aR)-4-[(1-methyl-1H-indazol-5-yl)acetyl]octahydro-1H-pyrrolo[3,2-b]pyridin-1-yl}-7H-pyrrolo[2,3-d]pyrimidine]", "values": [
      {"measurement": "IC50", "setting": "[1]", "value": "100 to 1000", "unit": "nM"}
    ]},
    {"smiles": "O=C(OCc1cccc(F)c1)N1CCCC2C1CCN2c1ncnc2[nH]ccc12", "note": "(centres unmarked) [Example 3-9, 3-fluorobenzyl 1-(7H-pyrrolo[2,3-d]pyrimidin-4-yl)octahydro-4H-pyrrolo[3,2-b]-pyridine-4-carboxylate]", "values": [
      {"measurement": "IC50", "setting": "[1]", "value": "10 to 100", "unit": "nM"}
    ]},
    {"smiles": "COC(=O)c1ccc(CCCOC(=O)N2CCC[C@@H]3[C@H]2CCN3c2ncnc3[nH]ccc23)cc1", "note": "[Example 3-22, 3-[4-(methoxycarbonyl)phenyl]propyl (3aR,7aR)-1-(7H-pyrrolo[2,3-d]pyrimidin-4-yl)octahydro-4H-pyrrolo[3,2-b]pyridine-4-carboxylate]", "values": [
      {"measurement": "IC50", "setting": "[1]", "value": "10 to 100", "unit": "nM"}
    ]},
    {"smiles": "CCS(=O)(=O)N1CCC[C@@H]2[C@H]1CCN2c1ncnc2[nH]ccc12", "note": "(single isomer, unassigned) [Example 32-3]", "values": [
      {"measurement": "IC50", "setting": "[1]", "value": "10 to 100", "unit": "nM"}
    ]},
    {"smiles": "O=C(C(O)c1ccccc1)N1CCC[C@@H]2[C@H]1CCN2c1ncnc2[nH]ccc12", "note": "(stereo partly drawn) [Example 29-46, 2-oxo-1-phenyl-2-[(3aR,7aR)-1-(7H-pyrrolo[2,3-d]pyrimidin-4-yl)octahydro-4H-pyrrolo[3,2-b]pyridin-4-yl]ethanol]", "values": [
      {"measurement": "IC50", "setting": "[1]", "value": "10 to 100", "unit": "nM"}
    ]},
    {"smiles": "CN1CCC(COC(=O)N2CCC[C@@H]3[C@H]2CCN3c2ncnc3[nH]ccc23)CC1", "note": "[Example 3-42, (1-methylpiperidin-4-yl)methyl (3 aR,7 aR)-1-(7H-pyrrolo[2,3-d]pyrimidin-4-yl)octahydro-4H-pyrrolo[3,2-b]pyridine-4-carboxylate]", "values": [
      {"measurement": "IC50", "setting": "[1]", "value": "100 to 1000", "unit": "nM"}
    ]},
    {"smiles": "O=C(c1ccccc1-c1ccccc1)N1CCC[C@@H]2[C@H]1CCN2c1ncnc2[nH]ccc12", "note": "[Example 29-23, 4-[(3aR,7aR)-4-(biphenyl-2-ylcarbonyl)octahydro-1H-pyrrolo[3,2-b]pyridin-1-yl]-7H-pyrrolo[2,3-d]pyrimidine]", "values": [
      {"measurement": "IC50", "setting": "[1]", "value": "100 to 1000", "unit": "nM"}
    ]},
    {"smiles": "O=C(c1ccncc1)N1CCC[C@@H]2[C@H]1CCN2c1ncnc2[nH]ccc12", "note": "[Example 29-12, 4-[(3aR,7aR)-4-(pyridin-4-ylcarbonyl)octahydro-1H-pyrrolo[3,2-b]pyridin-1-yl]-7H-pyrrolo[2,3-d]pyrimidine]", "values": [
      {"measurement": "IC50", "setting": "[1]", "value": "10 to 100", "unit": "nM"}
    ]},
    {"smiles": "O=C(c1cc2ccccn2c1)N1CCC[C@@H]2[C@H]1CCN2c1ncnc2[nH]ccc12", "note": "[Example 29-52, 4-[(3aR,7aR)-4-(indolizin-2-ylcarbonyl)octahydro-1H-pyrrolo[3,2-b]pyridin-1-yl]-7H-pyrrolo[2,3-d]pyrimidine]", "values": [
      {"measurement": "IC50", "setting": "[1]", "value": "100 to 1000", "unit": "nM"}
    ]},
    {"smiles": "COc1ccc(COC(=O)N2CCCC3C2CCN3c2ncnc3[nH]ccc23)cc1", "note": "(centres unmarked) [Example 3-14, 4-methoxybenzyl 1-(7H-pyrrolo[2,3-d]pyrimidin-4-yl)octahydro-4H-pyrrolo[3,2-b]-pyridine-4-carboxylate]", "values": [
      {"measurement": "IC50", "setting": "[1]", "value": "1 to 10", "unit": "nM"}
    ]},
    {"smiles": "CN(C)CCNC(=O)c1ccc(COC(=O)N2CCC[C@@H]3[C@H]2CCN3c2ncnc3[nH]ccc23)cc1", "note": "[Example 7-4, 4-{[2-(dimethylamino)ethyl]carbamoyl}benzyl (3aR,7aR)-1-(7H-pyrrolo[2,3-d]pyrimidin-4-yl)octahydro-4H-pyrrolo[3,2-b]pyridine-4-carboxylate]", "values": [
      {"measurement": "IC50", "setting": "[1]", "value": "100 to 1000", "unit": "nM"}
    ]},
    {"smiles": "CO[C@@](C(=O)N1CCC[C@@H]2[C@H]1CCN2c1ncnc2[nH]ccc12)(c1ccccc1)C(F)(F)F", "note": "[Example 19, (2R)-3,3,3-trifluoro-2-methoxy-2-phenyl-1-[(3aR,7aR)-1-(7H-pyrrolo[2,3-d]pyrimidin-4-yl)octahydro-4H-pyrrolo[3,2-b]pyridine-4-yl]propan-1-one]", "values": [
      {"measurement": "IC50", "setting": "[1]", "value": "10 to 100", "unit": "nM"}
    ]},
    {"smiles": "O=C(c1ccccc1)N1CCC[C@@H]2[C@H]1CCN2c1ncnc2[nH]ccc12", "note": "[Example 29-34, 4-[(3aR,7aR)-4-(phenylcarbonyl)octahydro-1H-pyrrolo[3,2-b]pryidin-1-yl]-7H-pyrrolo[2,3-d]pyrimidine]", "values": [
      {"measurement": "IC50", "setting": "[1]", "value": "10 to 100", "unit": "nM"}
    ]},
    {"smiles": "O=C(OCCN1CCOCC1)N1CCC[C@@H]2[C@H]1CCN2c1ncnc2[nH]ccc12", "note": "[Example 3-39, 2-morpholin-4-ylethyl (3aR,7aR)-1-(7H-pyrrolo[2,3-d]pyrimidin-4-yl)octahydro-4H-pyrrolo[3,2-b]pyridine-4-carboxylate]", "values": [
      {"measurement": "IC50", "setting": "[1]", "value": "10 to 100", "unit": "nM"}
    ]},
    {"smiles": "c1ccc(-c2nnc(N3CCCC4C3CCN4c3ncnc4[nH]ccc34)o2)cc1", "note": "[Example 31, (3aS,7aS and 3aR,7aR) 4-[4-(5-phenyl-1,3,4-oxadiazol-2-yl)octahydro-1H-pyrrolo[3,2-b]pyridin-1-yl]-7H-pyrrolo[2,3-d]pyrimidine]", "values": [
      {"measurement": "IC50", "setting": "[1]", "value": "100 to 1000", "unit": "nM"}
    ]},
    {"smiles": "O=C(c1ccco1)N1CCC[C@@H]2[C@H]1CCN2c1ncnc2[nH]ccc12", "note": "[Example 29-9, 4-[(3 aR,7aR)-4-(furan-2-ylcarbonyl)octahydro-1H-pyrrolo[3,2-b]pyridin-1-yl]-7H-pyrrolo[2,3-d]pyrimidine]", "values": [
      {"measurement": "IC50", "setting": "[1]", "value": "10 to 100", "unit": "nM"}
    ]},
    {"smiles": "O=C(CN1CCc2ccccc2C1)N1CCC[C@@H]2[C@H]1CCN2c1ncnc2[nH]ccc12", "note": "[Example 29-36, 2-{2-oxo-2-[(3aR,7aR)-1-(7H-pyrrolo[2,3-d]pyrimidin-4-yl)octahydro-4H-pyrrolo[3,2-b]pyridin-4-yl]ethyl}-1,2,3,4-tetrahydroisoquinoline]", "values": [
      {"measurement": "IC50", "setting": "[1]", "value": "10 to 100", "unit": "nM"},
      {"measurement": "IC50", "setting": "31.8 μM ATP, read-out: Representative IC50 values", "value": 30, "unit": "nM"}
    ]},
    {"smiles": "O=C(c1cn2cccnc2n1)N1CCC[C@@H]2[C@H]1CCN2c1ncnc2[nH]ccc12", "note": "[Example 29-27, 4-[(3aR,7aR)-4-(imidazo[1,2-a]pyrimidin-2-ylcarbonyl)octahydro-1H-pyrrolo[3,2-b]pyridin-1-yl]-7H-pyrrolo[2,3-d]pyrimidine]", "values": [
      {"measurement": "IC50", "setting": "[1]", "value": "10 to 100", "unit": "nM"}
    ]},
    {"smiles": "c1nc(N2CCC3NCCC[C@@H]32)c2cc[nH]c2n1", "note": "(single isomer, unassigned) [Enantiomer 1]", "values": [
      {"measurement": "IC50", "setting": "[1]", "value": "100 to 1000", "unit": "nM"}
    ]},
    {"smiles": "O=C(Cc1ccc(C(F)(F)F)cc1)N1CCCC2C1CCN2c1ncnc2[nH]ccc12", "note": "(centres unmarked) [Example 29-5, 4-(4-{[4-(trifluoromethyl)phenyl]acetyl}octahydro-1H-pyrrolo[3,2-b]pyridin-1-yl)-7H-pyrrolo[2,3-d]pyrimidine]", "values": [
      {"measurement": "IC50", "setting": "[1]", "value": "10 to 100", "unit": "nM"}
    ]},
    {"smiles": "NC(=O)c1ccc(COC(=O)N2CCC[C@@H]3[C@H]2CCN3c2ncnc3[nH]ccc23)cc1", "note": "[Example 7-2, 4-carbamoylbenzyl (3aR,7aR)-1-(7H-pyrrolo[2,3-d]pyrimidin-4-yl)octahydro-4H-pyrrolo[3,2-b]pyridine-4-carboxylate]", "values": [
      {"measurement": "IC50", "setting": "[1]", "value": "10 to 100", "unit": "nM"}
    ]},
    {"smiles": "O=C(O)c1ccc(COC(=O)N2CCC[C@@H]3[C@H]2CCN3c2ncnc3[nH]ccc23)cc1", "note": "[Example 6, 4-[({[(3aR,7aR)-1-(7H-pyrrolo[2,3-d]pyrimidin-4-yl)octahydro-4H-pyrrolo[3,2-b]pyridine-4-yl]carbonyl}oxy)methyl]benzoic acid]", "values": [
      {"measurement": "IC50", "setting": "[1]", "value": "100 to 1000", "unit": "nM"}
    ]},
    {"smiles": "O=C(O)c1ccc(CCC(=O)N2CCC[C@@H]3[C@H]2CCN3c2ncnc3[nH]ccc23)cc1", "note": "[Example 27, 4-{3-oxo-3-[(3aR,7aR)-1-(7H-pyrrolo[2,3-d]pyrimidin-4-yl)octahydro-4H-pyrrolo[3,2-b]pyridin-4-yl]propyl}benzoic acid]", "values": [
      {"measurement": "IC50", "setting": "[1]", "value": "10 to 100", "unit": "nM"}
    ]},
    {"smiles": "COC(=O)c1ccc(COC(=O)N2CCCC3C2CCN3c2ncnc3[nH]ccc23)cc1", "note": "(centres unmarked) [Example 3-25, 4-(methoxycarbonyl)benzyl 1-(7H-pyrrolo[2,3-d]pyrimidin-4-yl)octahydro-4H-pyrrolo[3,2-b]pyridine-4-carboxylate]", "values": [
      {"measurement": "IC50", "setting": "[1]", "value": "1 to 10", "unit": "nM"}
    ]}
  ]
}
